Assay results reported in patent publication EP4603105A1, “PHARMACEUTICAL COMPOSITION CONTAINING CYCLIC COMPOUND HAVING SELECTIVE KRAS INHIBITORY EFFECT AGAINST HRAS AND NRAS” (CHUGAI SEIYAKU KABUSHIKI KAISHA, priority 2022, dated 2024).
Like-named read-outs stand apart in the source and are kept apart here. Where a SMILES comes first, the peptide text is derived from it. Bridges are numbered along the chain shown (N, C = ends). [ ]: non-standard residue; d: D form. The star is where a group is joined. hPhe(3,5-F2-4-CF3) = N[C@@H](CCc1cc(F)c(C(F)(F)F)c(F)c1)C(=O)O; hPhe(3-Cl-4-CF3) = N[C@@H](CCc1ccc(C(F)(F)F)c(Cl)c1)C(=O)O; NPrPhe(4-CF3) = CCCN[C@@H](Cc1ccc(C(F)(F)F)cc1)C(=O)O; Pip(4,4-F2) = O=C(O)[C@@H]1CC(F)(F)CCN1; NMeGly(cPent) = CN[C@H](C(=O)O)C1CCCC1; Ac4c(3,3-Me2) = CC1(C)CC(N)(C(=O)O)C1; NMeD = CN[C@@H](CC(=O)O)C(=O)O; NMeL = CN[C@@H](CC(C)C)C(=O)O; Iva = CC[C@](C)(N)C(=O)O; Morpholide = C1CN(*)CCO1; NMeA = CN[C@@H](C)C(=O)O; Ac5c = NC1(C(=O)O)CCCC1; Aze = O=C(O)[C@@H]1CCN1; X11 = CC1(C)CCN(*)C1; Sar = CNCC(=O)O

Columns and labels:
[1] = biological target: GDP-bound NRAS wild-type protein (Homo sapiens, UniProt P01111); assay: Binding to NRAS by surface plasmon resonance (SPR), KD and KD ratio to KRAS
Chain of GDP-bound NRAS wild-type protein (P01111 whole entry): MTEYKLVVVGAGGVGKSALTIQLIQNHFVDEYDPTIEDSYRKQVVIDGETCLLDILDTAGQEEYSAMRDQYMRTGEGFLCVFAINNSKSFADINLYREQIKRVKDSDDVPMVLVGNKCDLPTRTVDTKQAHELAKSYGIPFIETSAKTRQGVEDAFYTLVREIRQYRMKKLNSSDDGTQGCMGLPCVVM
Procedure, shortened: (§1)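 GDP-loaded biotinylated Avi-tag RAS proteins (E. coli-expressed) captured on a Biotin CAPture chip at ~100–300 RU; single-cycle kinetics at 30°C, 100 µL/min, 75 s injections of rising compound concentrations. HBS pH 7.4 running buffer with 1 mM DTT, 10 mM MgCl2, 10 µM GDP, 4% DMSO. KD from 1:1 binding fit.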

HRAS wild-type protein = HRAS wild-type protein (Homo sapiens, UniProt P01112); assay: Binding to HRAS by surface plasmon resonance (SPR), KD and KD ratio to KRAS
Chain of HRAS wild-type protein (P01112 whole entry): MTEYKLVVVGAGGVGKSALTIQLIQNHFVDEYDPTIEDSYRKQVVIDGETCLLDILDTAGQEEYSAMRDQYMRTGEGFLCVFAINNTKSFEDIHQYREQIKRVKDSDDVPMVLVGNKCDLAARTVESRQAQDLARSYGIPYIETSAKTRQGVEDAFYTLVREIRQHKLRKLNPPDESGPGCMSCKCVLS
Procedure, shortened: as §1

[2] = test system: human lung cancer strain NCI-H441; type: cell-based
Procedure, shortened: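 Readout: […] after the ATP-based reagent. Compound: serial dilutions in dimethyl sulfoxide.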

[3] = ratio of the KD value with respect to GDP-bound NRAS wild-type protein to the KD value with respect to KRAS
[4] = ratio of the KD value with respect to HRAS wild-type protein to the KD value with respect to KRAS
[5] = ratio of KD for GDP-bound NRAS wild-type protein to KD for KRAS
[6] = ratio of KD for HRAS wild-type protein to KD for KRAS

Row | SMILES | NRAS /KRAS [1, 3] | HRAS /KRAS (HRAS wild-type protein; [4]) | IC50 [2] | NRAS /KRAS [1, 5] | HRAS /KRAS (HRAS wild-type protein; [6]) | also measured
1 | CCCN1C(=O)CN(C)C(=O)CN(C)C(=O)[C@H]([C@@H](C)OC)NC(=O)[C@H](CC(C)C)N(C)C(=O)C[C@@H](C(=O)N2CCOCC2)N(C)C(=O)[C@H](C2CCCC2)N(C)C(=O)C2(CC(C)(C)C2)NC(=O)[C@@H]2CCCN2C(=O)[C@H](CCc2ccc(C(F)(F)F)c(Cl)c2)NC(=O)CN(C)C(=O)[C@@H]1Cc1ccc(C(F)(F)F)cc1 [PP1963] ([NMeL]T(Me)[Sar][Sar][NPrPhe(4-CF3)][Sar][hPhe(3-Cl-4-CF3)]P[Ac4c(3,3-Me2)][NMeGly(cPent)][NMeD]-Morpholide; lactam N-11) | B (a compound having 3 or more and less than 10 is denoted as B) | C (A compound having a KD ratio of 0.1 or more and less than 3 is denoted as C) | 9.1 nM | – | – | –
2 | CC[C@H](C)[C@@H]1NC(=O)[C@H](CC(C)C)N(C)C(=O)C[C@@H](C(=O)N2CCOCC2)N(C)C(=O)[C@H](C2CCCC2)N(C)C(=O)C2(CC(F)(F)C2)NC(=O)[C@@H]2CCCN2C(=O)[C@H](CCc2cc(F)c(C(F)(F)F)c(F)c2)NC(=O)CN(C)C(=O)[C@H](Cc2ccc(C(F)(F)F)cc2)N2CCCCC[C@@H](C2=O)N(C)C(=O)CN(C)C1=O [PP0499] | B (a compound having 3 or more and less than 10 is denoted as B) | B (a compound having 3 or more and less than 10 is denoted as B) | 44.9 nM | – | – | –
3 | CCCN1C(=O)CN(C)C(=O)CN(C)C(=O)[C@H]([C@@H](C)CC)NC(=O)[C@H](CC(C)C)N(C)C(=O)C[C@@H](C(=O)N2CCOCC2)N(C)C(=O)[C@H](C2CCCC2)N(C)C(=O)C2(CCCC2)NC(=O)[C@@H]2CC(F)(F)CCN2C(=O)[C@H](CCc2ccc(C(F)(F)F)c(Cl)c2)NC(=O)CN(C)C(=O)[C@@H]1Cc1ccc(C(F)(F)F)cc1 [PP0264] ([NMeL]I[Sar][Sar][NPrPhe(4-CF3)][Sar][hPhe(3-Cl-4-CF3)][Pip(4,4-F2)][Ac5c][NMeGly(cPent)][NMeD]-Morpholide; lactam N-11) | – | – | 16.4 nM | B (a compound having 3 or more and less than 10 is denoted as B) | C (A compound having a KD ratio of 0.1 or more and less than 3 is denoted as C) | –
4 | CCC[C@H]1C(=O)N[C@@H]([C@@H](C)CC)C(=O)N(C)CC(=O)N(C)[C@H]2C/C=C\CCN(C2=O)[C@@H](Cc2ccc(C)cc2)C(=O)N(C)CC(=O)N[C@@H](CCc2ccc(C(F)(F)F)c(Cl)c2)C(=O)N2C[C@H](OCC)C[C@H]2C(=O)NC2(CC(C)(C)C2)C(=O)N(C)[C@@H](C(CC)CC)C(=O)N(C)[C@H](C(=O)N(C)C)CC(=O)N1C [PP2146] | A (a compound having 10 or more and less than 20 is denoted as A) | A (a compound having 10 or more and less than 20 is denoted as A) | 8.2 nM | – | – | –
5 | CCCN1C(=O)CN(C)C(=O)CN(C)C(=O)[C@H]([C@@H](C)CC)NC(=O)[C@H](CC(C)C)N(C)C(=O)C[C@@H](C(=O)N2CCOCC2)N(C)C(=O)[C@H](C2CCCC2)N(C)C(=O)[C@](C)(CC)NC(=O)[C@@H]2CCCN2C(=O)[C@H](CCc2cc(F)c(C(F)(F)F)c(F)c2)NC(=O)CN(C)C(=O)[C@@H]1Cc1ccc(C(F)(F)F)cc1 [PP0754] ([NMeL]I[Sar][Sar][NPrPhe(4-CF3)][Sar][hPhe(3,5-F2-4-CF3)]P[Iva][NMeGly(cPent)][NMeD]-Morpholide; lactam N-11) | B (a compound having 3 or more and less than 10 is denoted as B) | C (A compound having a KD ratio of 0.1 or more and less than 3 is denoted as C) | 40.4 nM | – | – | –
6 | CCO[C@@H]1C[C@H]2C(=O)NC3(CCC3)C(=O)N(C)[C@@H](C3CCCC3)C(=O)N(C)[C@H](C(=O)N(C)CC)CC(=O)N(C)[C@@H](CC3CCC3)C(=O)N[C@@H]([C@@H](C)CC)C(=O)N(C)CC(=O)N(C)[C@H]3C/C=C\CCN(C3=O)[C@@H](Cc3ccc(C(F)(F)F)cc3)C(=O)N(C)CC(=O)N[C@@H](CCc3ccc(C(F)(F)F)c(Cl)c3)C(=O)N2C1 [PP2826] | – | – | 8.6 nM | A (a compound having 10 or more and less than 20 is denoted as A) | A (a compound having 10 or more and less than 20 is denoted as A) | –
7 | CCO[C@@H]1C[C@H]2C(=O)NC3(CC(C)(C)C3)C(=O)N(C)[C@@H](C3CCCC3)C(=O)N(C)[C@H](C(=O)N(C)C)CC(=O)N(C)[C@H]3CCCCCCc4ccc(cc4)C[C@@H](C(=O)N(C)CC(=O)N[C@@H](CCc4ccc(C(F)(F)F)c(OC)c4)C(=O)N2C1)N1CC/C=C\C[C@@H](C1=O)N(C)C(=O)CN(C)C(=O)[C@H]([C@@H](C)CC)NC3=O [PP3066] | – | – | 2.2 nM | A (a compound having 10 or more and less than 20 is denoted as A) | B (a compound having 3 or more and less than 10 is denoted as B) | –
8 | CCO[C@@H]1C[C@H]2C(=O)NC3(CC(C)(C)C3)C(=O)N(C)[C@@H](C3CCCC3)C(=O)N(C)[C@H](C(=O)N(C)C)CC(=O)N(C)[C@@H](CC(C)C)C(=O)N[C@@H]([C@@H](C)CC)C(=O)N(C)CC(=O)N(C)[C@H]3C/C=C\CCN(C3=O)[C@@H](Cc3ccc(C(C)(F)F)cc3)C(=O)N(C)CC(=O)N[C@@H](CCc3ccc(C(F)(F)F)c(OC)c3)C(=O)N2C1 [PP2690] | – | – | – | AA (a compound having 20 or more is denoted as AA) | A (a compound having 10 or more and less than 20 is denoted as A) | IC50 ([2]; NCI-H441 cells, 4 days, CellTiter-Glo, read-out: NCl-H441 IC50): 3 nM
9 | CCO[C@@H]1C[C@H]2C(=O)NC3(CCC3)C(=O)N(C)[C@@H](C3CCCC3)C(=O)N(CC)[C@H](C(=O)N3CCOCC3)CC(=O)N(C)[C@@H](CCc3ccccc3)C(=O)N[C@@H]([C@@H](C)CC)C(=O)N(C)CC(=O)N(C)[C@H]3CCCCCN(C3=O)[C@@H](Cc3ccc(C(F)(F)F)cc3)C(=O)N(C)CC(=O)N[C@@H](CCc3cc(F)c(C(F)(F)F)c(F)c3)C(=O)N2C1 [PP0953] | – | – | 1610 nM | A (a compound having 10 or more and less than 20 is denoted as A) | A (a compound having 10 or more and less than 20 is denoted as A) | –
10 | CCCO[C@H]1CCN2C(=O)[C@H](CCc3cc(F)c(C(F)(F)F)c(F)c3)NC(=O)CN(C)C(=O)[C@H](Cc3ccc(C(F)(F)F)cc3)N3CCCCC[C@@H](C3=O)N(C)C(=O)CN(C)C(=O)[C@H]([C@@H](C)CC)NC(=O)[C@H](CC(C)C)N(C)C(=O)C[C@@H](C(=O)N3CCOCC3)N(C)C(=O)[C@H](C3CCCC3)N(C)C(=O)C3(CCC3)NC(=O)[C@H]12 [PP1069] | – | – | 127 nM | A (a compound having 10 or more and less than 20 is denoted as A) | B (a compound having 3 or more and less than 10 is denoted as B) | –
11 | CCO[C@@H]1C[C@H]2C(=O)NC3(CC(C)(C)C3)C(=O)N(C)[C@@H](C3CCCC3)C(=O)N(C)[C@H](C(=O)N(C)C)CC(=O)N(C)[C@@H](C)C(=O)N[C@@H]([C@@H](C)CC)C(=O)N(C)CC(=O)N(C)[C@H]3C/C=C\CCN(C3=O)[C@@H](Cc3ccc(C(F)(F)F)cc3)C(=O)N(C)CC(=O)N[C@@H](CCc3ccc(C(F)(F)F)c(OC)c3)C(=O)N2C1 [PP1674] | – | – | 5.1 nM | – | – | NRAS /KRAS ([1]; ratio of KD value for GDP-bound NRAS wild-type protein to KD value for KRAS (SPR)): A (a compound having 10 or more and less than 20 is denoted as A); HRAS /KRAS (HRAS wild-type protein; ratio of KD value for HRAS wild-type protein to KD value for KRAS (SPR)): A (a compound having 10 or more and less than 20 is denoted as A)
12 | CCCN1C(=O)[C@@H]2CCN2C(=O)[C@H](C)N(C)C(=O)[C@H]([C@@H](C)CC)NC(=O)[C@H](CC(C)C)N(C)C(=O)C[C@@H](C(=O)N2CCC(C)(C)C2)N(C)C(=O)[C@H](C2CCCC2)N(C)C(=O)C2(CCCC2)NC(=O)[C@@H]2CCCN2C(=O)[C@H](CCc2ccc(C(F)(F)F)c(Cl)c2)NC(=O)CN(C)C(=O)[C@@H]1Cc1ccc(C(F)(F)F)cc1 [PP0186] ([NMeL]I[NMeA][Aze][NPrPhe(4-CF3)][Sar][hPhe(3-Cl-4-CF3)]P[Ac5c][NMeGly(cPent)][NMeD]-X11; lactam N-11) | – | – | 20.5 nM | C (A compound having a KD ratio of 0.1 or more and less than 3 is denoted as C) | B (a compound having 3 or more and less than 10 is denoted as B) | –
13 | CCO[C@@H]1C[C@H]2C(=O)NC3(CCC3)C(=O)N(C)[C@@H](C3CCCC3)C(=O)N(C)[C@H](C(=O)N(C)CC)CC(=O)N(C)[C@@H](CC(C)C)C(=O)N[C@@H]([C@@H](C)CC)C(=O)N(C)CC(=O)N(C)[C@H]3C/C=C\CCN(C3=O)[C@@H](Cc3ccc(C(F)(F)F)cc3)C(=O)N(C)CC(=O)N[C@@H](CCc3cc(F)c(C(F)(F)F)c(F)c3)C(=O)N2C1 [PP1300] | – | – | 9.5 nM | – | – | NRAS /KRAS ([1]; ratio of KD with respect to GDP-bound NRAS wild-type protein to KD with respect to KRAS): A (a compound having 10 or more and less than 20 is denoted as A); HRAS /KRAS (HRAS wild-type protein; ratio of KD with respect to HRAS wild-type protein to KD with respect to KRAS): A (a compound having 10 or more and less than 20 is denoted as A)
14 | CCO[C@@H]1C[C@H]2C(=O)NC3(CC(C)(C)C3)C(=O)N(C)[C@@H](C(CC)CC)C(=O)N(C)[C@H](C(=O)N(C)C)CC(=O)N(C)[C@@H](CC(C)C)C(=O)N[C@@H]([C@@H](C)CC)C(=O)N(C)CC(=O)N(C)[C@H]3C/C=C\CCN(C3=O)[C@@H](Cc3ccc(C)cc3)C(=O)N(C)CC(=O)N[C@@H](CCc3ccc(C(F)(F)F)c(OC)c3)C(=O)N2C1 [PP2168] | A (a compound having 10 or more and less than 20 is denoted as A) | A (a compound having 10 or more and less than 20 is denoted as A) | 16.9 nM | – | – | –
